Source: ChEMBL document CHEMBL1208678, “Synthesis of some new 4(3H)-quinazolinone-2-carboxaldehyde thiosemicarbazones and their metal complexes and a study on their anticonvulsant, analgesic, cytotoxic and antimicrobial activities - part-1” (Eur J Med Chem, 2010)
≈ marks a conversion by molar mass, not a printed value. Calls of active or inactive are those of the source. The calls are words filed in the database; no cut-off is given here.

How the values were obtained:
Rattus norvegicus [1] = experiment: Anticonvulsant activity in Wistar rat assessed as protection against pentylenetetrazole-induced seizure at 50 mg/kg, ip administered 45 mins before pentylenetetrazole challenge; format: functional, organism-based; parameters: dose 50 mg/kg
Fusarium oxysporum [2] = experiment: […] activity against Fusarium oxysporum after 24 hrs by twofold serial dilution method; format: functional
Mus musculus [3] = experiment: Analgesic activity in Swiss albino mouse assessed as reaction time at 50 mg/kg, ip after 0.5 hrs by hotplate method (reference value: 7.4 seconds); format: functional; settings: route intraperitoneal
Mus musculus [4] = experiment: Analgesic activity in Swiss albino mouse assessed as reaction time at 50 mg/kg, ip after 1 hr by hotplate method (reference value: 7.5 seconds); format: functional; settings: route intraperitoneal
[5] = Cytotoxicity against mouse EAC cells assessed as cell death at 25 ug/ml after 2 hrs by Trypan blue exclusion method; format: functional, Ehrlich
Mus musculus [6] = experiment: Acute toxicity in mouse assessed as mortality up to 1200 mg/kg, po; format: organism-based; parameters: dose 1200 mg/kg, route oral; settings: in vivo
[7] = Cytotoxicity against mouse EAC cells assessed as cell death at 100 ug/ml after 2 hrs by Trypan blue exclusion method; format: functional, Ehrlich
Rattus norvegicus [8] = experiment: Anticonvulsant activity against pentylenetetrazole-induced seizure in Wistar rat assessed as duration of seizure at 50 mg/kg, ip administered 45 mins before pentylenetetrazole challenge (reference value: 312 seconds); format: functional; settings: route intraperitoneal
[9] = Cytotoxicity against mouse EAC cells assessed as cell death at 50 ug/ml after 2 hrs by Trypan blue exclusion method; format: functional, Ehrlich
Rattus norvegicus [10] = experiment: Anticonvulsant activity against pentylenetetrazole-induced seizure in Wistar rat assessed as shock latency time at 50 mg/kg, ip administered 45 mins before pentylenetetrazole challenge (reference value: 118 seconds); format: functional; settings: route intraperitoneal
Aspergillus ochraceus = experiment: Antifungal activity against Aspergillus ochraceus Wilhelm at 100 ug after 24 hrs by paper disc method; format: functional; settings: for zone of inhibition at 100 µg/disc: read-out: IZ
Pseudomonas aeruginosa = experiment: Antibacterial activity against Pseudomonas aeruginosa ATCC 9027 at 100 ug after 24 hrs by paper disc method; format: functional; settings: ATCC 9027, 24 h, read-out: IZ
Fusarium oxysporum [11] = experiment: Antifungal activity against Fusarium oxysporum at 100 ug after 24 hrs by paper disc method; format: functional; settings: for zone of inhibition at 100 µg/disc: read-out: IZ
Bacillus subtilis [12] = experiment: Antibacterial activity against Bacillus subtilis ATCC 6633 at 100 ug after 24 hrs by paper disc method; format: functional; settings: ATCC 6633, 24 h, read-out: IZ
Escherichia coli [13] = experiment: Antibacterial activity against Escherichia coli ATCC 7839 at 100 ug after 24 hrs by paper disc method; format: functional; settings: ATCC 7839, 24 h, read-out: IZ
Staphylococcus aureus [14] = experiment: Antibacterial activity against Staphylococcus aureus ATCC 6538 at 100 ug after 24 hrs by paper disc method; format: functional; settings: ATCC 6538, 24 h, read-out: IZ
Bacillus subtilis [15] = experiment: Antibacterial activity against Bacillus subtilis ATCC 6633 after 24 hrs by twofold serial dilution method; format: functional; settings: ATCC 6633, 24 h
Staphylococcus aureus [16] = experiment: Antibacterial activity against Staphylococcus aureus ATCC 6538 after 24 hrs by twofold serial dilution method; format: functional; settings: ATCC 6538, 24 h
Escherichia coli [17] = experiment: Antibacterial activity against Escherichia coli ATCC 7839 after 24 hrs by twofold serial dilution method; format: functional; settings: ATCC 7839, 24 h
Mus musculus [18] = experiment: Analgesic activity in Swiss albino mouse assessed as reaction time at 2 mg/kg, ip after 1 hr by hotplate method (reference value: 7.5 seconds); format: functional; settings: route intraperitoneal
Rattus norvegicus [19] = experiment: Anticonvulsant activity against pentylenetetrazole-induced seizure in Wistar rat assessed as shock latency time at 2 mg/kg, ip administered 45 mins before pentylenetetrazole challenge (reference value: 118 seconds); format: functional; settings: route intraperitoneal
Rattus norvegicus [20] = experiment: Anticonvulsant activity in Wistar rat assessed as protection against pentylenetetrazole-induced seizure at 2 mg/kg, ip administered 45 mins before pentylenetetrazole challenge; format: functional, organism-based; parameters: dose 2 mg/kg
Mus musculus [21] = experiment: Analgesic activity in Swiss albino mouse assessed as reaction time at 2 mg/kg, ip after 0.5 hrs by hotplate method (reference value: 7.4 seconds); format: functional; settings: route intraperitoneal
Rattus norvegicus [22] = experiment: Anticonvulsant activity against pentylenetetrazole-induced seizure in Wistar rat assessed as duration of seizure at 2 mg/kg, ip administered 45 mins before pentylenetetrazole challenge (reference value: 312 seconds); format: functional; settings: route intraperitoneal

Compound	Activity (Rattus norvegicus [1])	Time (Mus musculus [3])	Time (Mus musculus [4])	Activity (Mus musculus [6])	Time (Rattus norvegicus [8])	Time (Rattus norvegicus [10])	zone of inhibition at 100 µg/disc (Pseudomonas aeruginosa)	zone of inhibition at 100 µg/disc (Bacillus subtilis [12])	zone of inhibition at 100 µg/disc (Escherichia coli [13])	zone of inhibition at 100 µg/disc (Staphylococcus aureus [14])	also measured
NC(=S)N/N=C/c1nc2ccc(I)cc2c(=O)n1-c1ccc(F)cc1	inactive	19.2 s	27.2 s	Non-toxic	760 s	660 s					MIC (Fusarium oxysporum [2]): 12.5 µg/mL (≈ 26.8 µM); Activity [5]: 0%; Activity [7]: 40%; Activity [9]: 10%
CCNC(=S)N/N=C/c1nc2ccc(I)cc2c(=O)n1-c1ccccc1				Non-toxic			0 mm	0 mm	0 mm	0 mm	zone of inhibition at 100 µg/disc (Aspergillus ochraceus): 0 mm; zone of inhibition at 100 µg/disc (Fusarium oxysporum [11]): 15 mm
CCNC(=S)N/N=C/c1nc2ccc(I)cc2c(=O)n1-c1ccc(F)cc1	inactive			Non-toxic	520 s	280 s					
CC[C@H]1OC(=O)[C@H](C)[C@@H](O[C@H]2C[C@@](C)(OC)[C@@H](O)[C@H](C)O2)[C@H](C)[C@@H](O[C@@H]2O[C@H](C)C[C@H](N(C)C)[C@H]2O)[C@](C)(O)C[C@@H](C)C(=O)[C@H](C)[C@@H](O)[C@]1(C)O [ERYTHROMYCIN]							16 mm	30 mm	15 mm		
NYSTATIN											inhibition zone (IZ) (Aspergillus ochraceus): 12 mm; inhibition zone (IZ) (Fusarium oxysporum [11]): 20 mm
CNC(=S)N/N=C/c1nc2ccc(I)cc2c(=O)n1-c1ccccc1				Non-toxic							MIC (Fusarium oxysporum [2]): 6 µg/mL (≈ 13 µM)
NC(=S)N/N=C/c1nc2ccc(I)cc2c(=O)n1-c1ccccc1		18.6 s	26.6 s	Non-toxic			0 mm	9 mm	0 mm	8 mm	MIC (Bacillus subtilis [15]): 100 µg/mL (≈ 223 µM); zone of inhibition at 100 µg/disc (Aspergillus ochraceus): 0 mm; MIC (Fusarium oxysporum [2]): 12.5 µg/mL (≈ 27.8 µM); MIC (Staphylococcus aureus [16]): 100 µg/mL (≈ 223 µM); MIC (Escherichia coli [17]): 100 µg/mL (≈ 223 µM); zone of inhibition at 100 µg/disc (Fusarium oxysporum [11]): 23 mm
O=c1c2cc(I)ccc2nc(/C=N/NC(=S)Nc2ccccc2)n1-c1ccccc1		10.2 s	19.2 s	Non-toxic							
CNC(=S)N/N=C/c1nc2ccc(I)cc2c(=O)n1-c1ccc(F)cc1	inactive	11.1 s	19.2 s	Non-toxic	580 s	380 s					Activity [5]: 0%; Activity [7]: 20%; Activity [9]: 0%
CCn1cc(C(=O)O)c(=O)c2cc(F)c(N3CCNCC3)cc21 [NORFLOXACIN]							15 mm	35 mm	17 mm	27 mm	
CN1C(=O)CN=C(c2ccccc2)c2cc(Cl)ccc21 [DIAZEPAM]											Time (Mus musculus [18]): 65.9 s; Time (Rattus norvegicus [19]): 3600 s; Activity (Rattus norvegicus [20]): Active; Time (Mus musculus [21]): 62.9 s; Time (Rattus norvegicus [22]): 0 s
O=c1c2cc(I)ccc2nc(/C=N/NC(=S)Nc2ccccc2)n1-c1ccc(F)cc1	inactive	8 s	13.5 s	Non-toxic	350 s	120 s	0 mm	0 mm	8 mm	0 mm	zone of inhibition at 100 µg/disc (Aspergillus ochraceus): 0 mm; Activity [5]: 0%; zone of inhibition at 100 µg/disc (Fusarium oxysporum [11]): 25 mm; Activity [7]: 0%; Activity [9]: 0%
